In patent US6521623B1, “N,N'-disubstituted benzimidazolone derivatives with affinity at the serotonin and dopamine receptors” (Boehringer Ingelheim Pharma KG, priority 2000, dated 2003):

Target: T1, D4 human receptors (Homo sapiens, UniProt P21917)
T1 construct: expressed in transfected cells; host or cells: CHO cells
T1 sequence (P21917 1-419): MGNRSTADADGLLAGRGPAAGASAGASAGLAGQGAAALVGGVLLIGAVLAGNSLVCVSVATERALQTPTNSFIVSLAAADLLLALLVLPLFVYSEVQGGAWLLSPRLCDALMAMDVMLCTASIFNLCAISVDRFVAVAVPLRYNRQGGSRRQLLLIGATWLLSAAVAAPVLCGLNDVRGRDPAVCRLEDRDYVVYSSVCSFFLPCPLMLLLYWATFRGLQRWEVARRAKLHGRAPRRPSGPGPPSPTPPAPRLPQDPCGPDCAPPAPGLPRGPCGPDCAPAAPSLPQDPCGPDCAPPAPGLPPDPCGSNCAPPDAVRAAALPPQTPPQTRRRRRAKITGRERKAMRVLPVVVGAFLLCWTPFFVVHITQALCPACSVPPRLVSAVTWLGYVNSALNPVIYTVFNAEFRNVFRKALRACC
Assay: D4 Radioligand Receptor Binding Assay ([3H] YM-09151-2, CHO cell membranes)
Conditions: compound 10^−7 M, singlicate, [3H] YM-09151-2 0.15-0.25 nM
Procedure, shortened: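 Membranes from CHO cells expressing human D4 receptor incubated with [3H] YM-09151-2 (0.15-0.25 nM) and compound at one concentration (10^−7 M, singlicate) for 120 min at 27° C, then filtered.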

CCNC(=O)OCCn1c(=O)n(CCN2CCN(c3cccc(C)c3C)CC2)c2ccccc21 [Compound 215]
inhibition at 0.1 µM: 48%
